In PubChem BioAssay AID248 (DTP/NCI, 2004):
Values joined by “and” are separate entries in the source; they are usually repeats but may differ in a detail not shown here. Equal entries are not always repeated. Toxic doses and inconclusive results are not listed. Rule as the data show it: active = T/C of 150% or more; inactive = T/C below 125%.

System: L1210 leukemia ip in BDF1 mice, survival T/C
Experiment: NCI In Vivo Anticancer Drug Screen. Data for tumor model L1210 Leukemia (intraperitoneal) in B6D2F1 (BDF1) mice
Details: endpoint: mean survival time, higher = longer survival
Procedure, shortened: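 Transplantable tumor model; survival measured in treated vs vehicle control mice. Value = treated/control.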

[1] = dose: 100.0 mg/kg/injection, schedule: Q01DX009 (ip), vehicle: Klucel (hydroxypropylcellulose) (HPC)
[2] = dose: 200.0 mg/kg/injection, schedule: Q01DX009 (ip), vehicle: Klucel (hydroxypropylcellulose) (HPC)
[3] = dose: 400.0 mg/kg/injection, schedule: Q01DX009 (ip), vehicle: Klucel (hydroxypropylcellulose) (HPC)
[4] = dose: 100.0 mg/kg/injection, schedule: Q04DX003 (ip), vehicle: Klucel (hydroxypropylcellulose) (HPC)
[5] = dose: 200.0 mg/kg/injection, schedule: Q04DX003 (ip), vehicle: Klucel (hydroxypropylcellulose) (HPC)
[6] = dose: 400.0 mg/kg/injection, schedule: Q04DX003 (ip), vehicle: Klucel (hydroxypropylcellulose) (HPC)
[7] = dose: 100.0 mg/kg/injection, schedule: Q04DX003 (ip), vehicle: saline with Tween-80
[8] = dose: 200.0 mg/kg/injection, schedule: Q04DX003 (ip), vehicle: saline with Tween-80
[9] = dose: 400.0 mg/kg/injection, schedule: Q04DX003 (ip), vehicle: saline with Tween-80

Measured: T/C

CCCCNC(=O)C1CCCC(C(=O)NCCCC)C1 (stereo unspecified)
inactive: dose: 75.0 mg/kg/injection, schedule: Q01DX009 (ip), vehicle: saline 96 % of control | dose: 150.0 mg/kg/injection, schedule: Q01DX009 (ip), vehicle: saline 102 % of control | dose: 300.0 mg/kg/injection, schedule: Q01DX009 (ip), vehicle: saline 87 % of control

NC(C(=O)c1ccccc1)c1ccccc1.[Cl][Sn][Cl] (stereo unspecified)
inactive: dose: 75.0 mg/kg/injection, schedule: Q01DX001 (ip), vehicle: saline 102 % of control | dose: 150.0 mg/kg/injection, schedule: Q01DX001 (ip), vehicle: saline 117 % of control

C[Si](C)(C)OC(C(F)(F)F)C(F)(F)F
inactive: dose: 100.0 mg/kg/injection, schedule: Q01DX001 (ip), vehicle: steriod suspending solution 98 % of control | dose: 200.0 mg/kg/injection, schedule: Q01DX001 (ip), vehicle: steriod suspending solution 96 % of control | dose: 400.0 mg/kg/injection, schedule: Q01DX001 (ip), vehicle: steriod suspending solution 86 % of control

CCOP(=O)(OCC)C1c2cc(Cl)ccc2-c2c(Cl)cc(Cl)cc21 (stereo unspecified)
inactive: dose: 15.0 mg/kg/injection, schedule: Q01DX001 (ip), vehicle: saline 103 % of control | dose: 30.0 mg/kg/injection, schedule: Q01DX001 (ip), vehicle: saline 98 % of control | dose: 60.0 mg/kg/injection, schedule: Q01DX001 (ip), vehicle: saline 103 % of control

C/C(=C(/SS/C(C(=O)O)=C(/C)c1cccc(O)c1)C(=O)O)c1cccc(O)c1
inactive: dose: 100.0 mg/kg/injection, schedule: Q01DX001 (ip), vehicle: saline 97 % of control | dose: 200.0 mg/kg/injection, schedule: Q01DX001 (ip), vehicle: saline 97 % of control | dose: 400.0 mg/kg/injection, schedule: Q01DX001 (ip), vehicle: saline 97 % of control

CNC1C(O)C(OC2C(N)CC(N)C(OC3OC(CN)C(O)C(O)C3O)C2O)OCC1(C)O (stereo unspecified)
inactive: dose: 100.0 mg/kg/injection, schedule: Q04DX002 (ip), vehicle: saline 116 % of control | dose: 200.0 mg/kg/injection, schedule: Q04DX002 (ip), vehicle: saline 100 % of control | dose: 400.0 mg/kg/injection, schedule: Q04DX002 (ip), vehicle: saline 95 % of control

COC1C(OC(N)=O)C(O)C(Oc2ccc3c(O)c(NC(=O)c4ccc(O)c(CC=C(C)C)c4)c(=O)oc3c2C)OC1(C)C (stereo unspecified)
inactive: dose: 50.0 mg/kg/injection, schedule: Q01DX Z (ip), vehicle: saline 91 % of control | dose: 100.0 mg/kg/injection, schedule: Q01DX Z (ip), vehicle: saline 91 % of control | dose: 200.0 mg/kg/injection, schedule: Q01DX Z (ip), vehicle: saline 91 % of control

CC12CCC3C4CCC(O)CC4=CCC3C1CCC2=O (stereo unspecified)
inactive: dose: 50.0 mg/kg/injection, schedule: Q01DX001 (ip), vehicle: Klucel (hydroxypropylcellulose) (HPC) 107 % of control | dose: 100.0 mg/kg/injection, schedule: Q01DX001 (ip), vehicle: Klucel (hydroxypropylcellulose) (HPC) 104 % of control and 107 % of control | dose: 200.0 mg/kg/injection, schedule: Q01DX001 (ip), vehicle: Klucel (hydroxypropylcellulose) (HPC) 92 % of control | dose: 400.0 mg/kg/injection, schedule: Q01DX001 (ip), vehicle: Klucel (hydroxypropylcellulose) (HPC) 104 % of control

CC1(C)COC(c2ccc3c(c2)OCO3)OC1
inactive: dose: 100.0 mg/kg/injection, schedule: Q01DX001 (ip), vehicle: carboxymethylcellulose (CMC) 96 % of control | dose: 200.0 mg/kg/injection, schedule: Q01DX001 (ip), vehicle: carboxymethylcellulose (CMC) 97 % of control | dose: 400.0 mg/kg/injection, schedule: Q01DX001 (ip), vehicle: carboxymethylcellulose (CMC) 94 % of control

O=S(=O)(O)/[N+]([O-])=N/O
inactive: dose: 100.0 mg/kg/injection, schedule: Q04DX003 (ip), vehicle: saline sonified 94 % of control | dose: 200.0 mg/kg/injection, schedule: Q04DX003 (ip), vehicle: saline sonified 100 % of control | dose: 400.0 mg/kg/injection, schedule: Q04DX003 (ip), vehicle: saline sonified 95 % of control

CN1CCCC1CCCl (stereo unspecified)
inactive: dose: 12.5 mg/kg/injection, schedule: Q01DX001 (ip), vehicle: saline 97 % of control | dose: 12.5 mg/kg/injection, schedule: Q04DX003 (ip), vehicle: saline 88 % of control | dose: 25.0 mg/kg/injection, schedule: Q01DX001 (ip), vehicle: saline 100 % of control | dose: 25.0 mg/kg/injection, schedule: Q04DX003 (ip), vehicle: saline 95 % of control | dose: 50.0 mg/kg/injection, schedule: Q01DX001 (ip), vehicle: saline 100 % of control | dose: 50.0 mg/kg/injection, schedule: Q04DX003 (ip), vehicle: saline 95 % of control | dose: 75.0 mg/kg/injection, schedule: Q04DX003 (ip), vehicle: saline 100 % of control

COc1cccc2c(=O)cc(C)[nH]c12
inactive: dose: 50.0 mg/kg/injection, schedule: Q01DX009 (ip), vehicle: water 104 % of control | dose: 100.0 mg/kg/injection, schedule: Q01DX009 (ip), vehicle: water 102 % of control | dose: 100.0 mg/kg/injection, schedule: Q04DX003 (ip), vehicle: water 101 % of control | dose: 200.0 mg/kg/injection, schedule: Q01DX009 (ip), vehicle: water 109 % of control | dose: 200.0 mg/kg/injection, schedule: Q04DX003 (ip), vehicle: water 96 % of control | dose: 400.0 mg/kg/injection, schedule: Q01DX009 (ip), vehicle: water 105 % of control | dose: 400.0 mg/kg/injection, schedule: Q04DX003 (ip), vehicle: water 108 % of control

c1ccc(-c2oc(-c3ccccc3)c3c2CCCC3)cc1
inactive: [1] 100 % of control | [2] 98 % of control | [3] 98 % of control

C=CP(c1ccccc1)c1ccccc1
inactive: dose: 100.0 mg/kg/injection, schedule: Q01DX009 (ip), vehicle: saline sonified 103 % of control | dose: 200.0 mg/kg/injection, schedule: Q01DX009 (ip), vehicle: saline sonified 110 % of control

CCSc1nc(C=O)c(Cc2ccccc2)c(=O)[nH]1
inactive: [4] 101 % of control | [5] 103 % of control | [6] 98 % of control

COc1cc(OC)c(Br)cc1C
inactive: dose: 100.0 mg/kg/injection, schedule: Q01DX009 (ip), vehicle: saline with Tween-80 100 % of control | [7] 100 % of control | dose: 200.0 mg/kg/injection, schedule: Q01DX009 (ip), vehicle: saline with Tween-80 101 % of control | [8] 96 % of control | dose: 400.0 mg/kg/injection, schedule: Q01DX009 (ip), vehicle: saline with Tween-80 102 % of control | [9] 104 % of control

Nc1nc(N)c(-c2ccccc2)c(C=O)n1
inactive: [7] 110 % of control | [8] 117 % of control | [9] 110 % of control

NC(=O)/C=C\C(=O)O (tested in a mixture with another compound)
inactive: dose: 31.25 mg/kg/injection, schedule: Q#A X Z (ip), vehicle: carboxymethylcellulose (CMC) 106 % of control | dose: 62.5 mg/kg/injection, schedule: Q#A X Z (ip), vehicle: carboxymethylcellulose (CMC) 110 % of control | dose: 125.0 mg/kg/injection, schedule: Q#A X Z (ip), vehicle: carboxymethylcellulose (CMC) 118 % of control | dose: 250.0 mg/kg/injection, schedule: Q#A X Z (ip), vehicle: carboxymethylcellulose (CMC) 108 % of control

O=C(O)c1ccc2c([N+](=O)[O-])cccc2n1
inactive: [1] 100 % of control | [4] 96 % of control | [2] 97 % of control | [5] 107 % of control | [6] 93 % of control

CC1(C)CC(=O)CC(C)(C)N1O
inactive: [1] 94 % of control | [4] 101 % of control | [2] 98 % of control | [5] 94 % of control | [3] 100 % of control | [6] 94 % of control
